# Experimental data as given in patent US8951972B2, “FGFR1 extracellular domain combination therapies for lung cancer” (Five Prime Therapeutics, Inc., priority 2010, dated 2015).
# What was measured:
# [1] = tested on: A549 Non-Small Cell Lung Cancer (NSCLC) Xenograft; test: A549 non-small cell lung cancer (NSCLC) xenograft model, tumor volume; type: in vivo, SCID mice
# Description: Six weeks old female SCID mice were purchased from Charles River Laboratories (Wilmington, Mass.) and were acclimated for 1 week before the start of the study. […] The cells were implanted subcutaneously over the right flank of the mice at 5×10^6 cells/100 μl/mouse. One day after tumor implantation, mice were randomized according to body weight at 10 mice per group.
# The tumor volume and body weight of the mice were monitored twice a week throughout each study.
# The tumor volume of each group of mice at the end of each study was analyzed by one-way ANOVA followed by Tukey's test.
# Cisplatin was purchased from Sigma-Aldrich (St. Louis, Mo.; Cat. No. P4394), formulated in 0.9% saline, and administered i.p. at 3.5 mg/kg ([…]) once per week for six weeks. Saline was used as negative control and was administered i.p. at 100 μl per mouse twice a week for six weeks.
# On day 42, when the average tumor volume in the vehicle group reached 1300 mm^3, the mice were euthanized by isoflurane inhalation and cervical dislocation.
# FGFR1-ECD.339-Fc was formulated in 0.9% Saline for Injection USP at 3 mg/ml. […] FGFR1-ECD.339-Fc was administered intraperitoneally (i.p.) at 15 mg/kg twice per week for 5 weeks. Paclitaxel was administered i.p. at 18 mg/kg on days 8, 12, and 15.
# When the average tumor volume in vehicle control group reached ˜500 mm^3, the mice were euthanized by isoflurane inhalation and cervical dislocation.
# FGFR1-ECD.339-Fc was formulated in 0.9% Saline for Injection USP at 3 mg/ml. 5-FU was purchased from Sigma-Aldrich (St. Louis, Mo.; Cat. No. F6627) and was initially dissolved in dimethyl sulfoxide (DMSO, Sigma-Aldrich, St. Louis, Mo.; Cat. No. D8418-50) at the concentration of 50 mg/ml as a stock solution. The stock solution was further diluted in 0.9% Sodium Chloride Injection USP to 6.6 mg/ml (for 33 mg/kg dosing). FGFR1-ECD.339-Fc was administered intraperitoneally (i.p.) at 15 mg/kg twice per week for four weeks. 5-FU was administered i.p. at 33 mg/kg twice a week for three weeks.
# Mice were euthanized on day 31 by isoflurane inhalation and cervical dislocation.
# FGFR1-ECD.339-Fc was formulated in PBS at 3 mg/ml and administered intraperitoneally (i.p.) at 15 mg/kg (300 μg/100 μl/mouse) twice a week for four weeks. Docetaxel was administered i.p. at 3 mg/kg or 10 mg/kg twice per week for four weeks.
# Mice in the albumin control group were euthanized on day 32 by isoflurane inhalation and cervical dislocation when the average tumor volume in the group reached 1000 mm^3.
# [2] = tested on: H520 Non-Small Cell Lung Cancer (NSCLC) Xenograft; test: H520 non-small cell lung cancer (NSCLC) xenograft model, tumor volume; type: in vivo, SCID mice
# Description: Dosing for all groups began one day post tumor implantation.
# In combination groups, FGFR1-ECD.339-Fc and pemetrexed were administered on the same schedule as when given as single agents, and were administered concurrently on days 1, 4, 8, and 11.
# [3] = Body weight of the mice in the xenograft studies; type: in vivo; settings: for Body weight / tolerability: 250 mg/kg; for Body weight (weight loss): A549 study
# [4] = tested on: Colo205 Colon Cancer Xenograft; test: Colo205 colon cancer xenograft model, tumor volume; type: in vivo, SCID mice
# Description: Cells were resuspended in a solution of 50%/v PBS and 50%/v Matrigel at a concentration of 25 million cells/ml. Resuspended cells were kept on ice until implantation. […] On day 0, 2.5 million cells/100 μl were implanted over the right flank of the each mouse using a 27G1/2 needle. One day after tumor implantation, the mice were randomized according to the body weight.
# Leucovorin (LV) was also purchased from Sigma-Aldrich (Cat. No. F8259) and was formulated in 0.9% Sodium Chloride Injection USP at 2 mg/ml (for 10 mg/kg dosing), to 4 mg/ml (for 20 mg/kg dosing), and to 6 mg/ml (for 30 mg/kg dosing).
# In the first experiment, FGFR1-ECD.339-Fc was combined with three different concentrations of 5-FU/leucovorin. In the second experiment, FGFR1-ECD.339-Fc was combined with either bevacizumab or 5-FU/leucovorin, or both. The double line separates the groups from the two experiments.
# When the average tumor volume in a group was near 600 mm^3, the mice in that group were euthanized by isoflurane inhalation and cervical dislocation.
# The order of effectiveness of the various treatments was evaluated two ways: 1) the average tumor volume in each group on a single time point (day); and 2) time for the average tumor volume in each group to reach 500 mm^3 (see the dotted line in FIG. 11E).
# Leucovorin was also purchased from Sigma-Aldrich (Cat. No. F8259) and was formulated in 0.9% Sodium Chloride Injection USP at 2 mg/ml (for 10 mg/kg dosing).
# 5-FU and leucovorin were each administered i.p. at 10 mg/kg daily for five days. Oxaliplatin was administered i.p. at 5 mg/kg, 10 mg/kg, or 15 mg/kg in one dose on day 1.
# Mice were euthanized on day 28 by isoflurane inhalation and cervical dislocation.
# [5] = day 42, FGFR1-ECD.339-Fc 20 mg/kg i.p. 2x/wk x 6 wks, cisplatin 3.5 mg/kg i.p. 1x/wk x 6 wks
# [6] = day 24, FGFR1-ECD.339-Fc 15 mg/kg i.p. 3x/wk x 4 wks, bevacizumab 1 mg/kg i.p. 2x/wk x 4 wks, 5-Fu/LV 10 mg/kg each i.p. q.d. x 5 days
molecule,measurement,setting,value
"O=c1[nH]cc(F)c(=O)[nH]1 [5-FU, 5-fluoro-1H-pyrimidine-2,4-dione, reference compound]","Fractional tumor volume (FTV), each treatment alone","[1]; day 31, FGFR1-ECD.339-Fc 15 mg/kg i.p. 2x/wk x 4 wks, 5-FU 33 mg/kg i.p. 2x/wk x 3 wks",1.04
"N.N.[Cl][Pt][Cl] [Cisplatin, (SP-4-2)-diamminedichloridoplatinum, reference compound]",Mean Tumor volume mm^3(±SD),[1]; [5],682 (±195) mm^3
same,Tumor growth inhibition (%),[1]; [5],49%
same,"Fractional tumor volume (FTV) relative to control, each treatment alone","[1]; day 42, FGFR1-ECD.339-Fc 20 mg/kg, cisplatin 3.5 mg/kg",0.5
"CC(=O)O[C@H]1C(=O)[C@@]2(C)[C@H]([C@H](OC(=O)c3ccccc3)[C@]3(O)C[C@H](OC(=O)[C@H](O)[C@@H](NC(=O)c4ccccc4)c4ccccc4)C(C)=C1C3(C)C)[C@]1(OC(C)=O)CO[C@@H]1C[C@@H]2O [Paclitaxel, (2α,4α,5β,7β,10β,13α)-4,10-bis(acetyloxy)-13-{[(2R,3S)-3-(benzoylamino)-2-hydroxy-3-phenylpropanoyl]oxy}-1,7-dihydroxy-9-oxo-5,20-epoxytax-11-en-2-yl benzoate, reference compound]","Fractional tumor volume (FTV), each treatment alone","[1]; day 31, FGFR1-ECD.339-Fc 15 mg/kg i.p. 2x/wk x 5 wks, paclitaxel 18 mg/kg i.p. days 8, 12, 15",0.57
same,"Fractional tumor volume (FTV), each treatment alone","[1]; day 38, FGFR1-ECD.339-Fc 15 mg/kg i.p. 2x/wk x 5 wks, paclitaxel 18 mg/kg i.p. days 8, 12, 15",0.50
"Nc1nc2[nH]cc(CCc3ccc(C(=O)N[C@@H](CCC(=O)O)C(=O)O)cc3)c2c(=O)[nH]1 [Pemetrexed, (S)-2-[4-[2-(4-amino-2-oxo-3,5,7-triazabicyclo[4.3.0]nona-3,8,10-trien-9-yl)ethyl]benzoyl]aminopentanedioic acid, reference compound]",Tumor inhibition over the course of the study (mean tumor volume),"[2]; FIG. 4A, highest dose of pemetrexed (250 mg/kg), alone or with FGFR1-ECD.339-Fc 15 mg/kg",did not appear to inhibit tumor growth
same,Tumor inhibition over the course of the study (mean tumor volume),"[2]; FIGS. 2A, 3A, 4A, FGFR1-ECD.339-Fc 15 mg/kg, pemetrexed alone at the low or medium dose (62.5 or 125 mg/kg), combination dosed concurrently",resulted in tumor inhibition
same,Body weight / tolerability,"[3]; H520 study, high dose of pemetrexed, 250 mg/kg i.p. QD x 5, FIG. 4B",approaching the maximum tolerated dose
same,Body weight / tolerability,"[3]; mouse, in vivo, ip",initially lost significant body weight
"CC[C@]1(O)C[C@H]2CN(CCc3c([nH]c4ccccc34)[C@@](C(=O)OC)(c3cc4c(cc3OC)N(C=O)[C@H]3[C@@](O)(C(=O)OC)[C@H](OC(C)=O)[C@]5(CC)C=CCN6CC[C@]43[C@@H]65)C2)C1 [Vincristine, methyl (1R,9R,10S,11R,12R,19R)-11-(acetyloxy)-12-ethyl-4-[(13S,15S,17S)-17-ethyl-17-hydroxy-13-(methoxycarbonyl)-1,11-diazatetracyclo[13.3.1.0^4,12.0^5,10]nonadeca-4(12),5,7,9-tetraen-13-yl]-8-formyl-10-hydroxy-5-methoxy-8,16-diazapentacyclo[10.6.1.0^1,9.0^2,7.0^16,19]nonadeca-2,4,6,13-tetraene-10-carboxylate, reference compound]","Fractional tumor volume (FTV), each treatment alone","[1]; day 39, FGFR1-ECD.339-Fc 15 mg/kg i.p. 2x/wk (start day 1), vincristine 1 mg/kg i.p. days 8, 15, 22",0.53
same,"Fractional tumor volume (FTV), each treatment alone","[1]; day 46, FGFR1-ECD.339-Fc 15 mg/kg i.p. 2x/wk (start day 1), vincristine 1 mg/kg i.p. days 8, 15, 22",0.55
same,"Fractional tumor volume (FTV), each treatment alone","[1]; day 70, FGFR1-ECD.339-Fc 20 mg/kg i.p. 2x/wk (start day 19), vincristine 1.5 mg/kg i.p. days 27, 34, 41",0.41
same,Body weight (weight loss),"[3]; higher dose of vincristine (1.5 mg/kg i.p. days 27, 34, 41), FIG. 9C",lost weight
same,Body weight (weight loss),"[3]; lower dose of vincristine (1 mg/kg i.p. days 8, 15, 22), data not shown",did not lose weight
Bevacizumab: recombinant humanized anti-VEGF monoclonal antibody [reference compound],"Fractional tumor volume (FTV), each treatment alone","[4]; Day 24, FGFR1-ECD.339-Fc 15 mg/kg i.p. 3x/wk x 4 wks, bevacizumab 1 mg/kg i.p. 2x/wk x 4 wks, 5-Fu/LV 10 mg/kg each q.d. x 5 days",0.58
same,Order of antitumor effect of the treatment groups,"[4]; by average tumor volume on a single day and by time for average tumor volume to reach 500 mm^3 (FIG. 11E), value gives the next-ranked group",>FGFR1-ECD.339-Fc
same,Mean Tumor volume mm^3(±SD),[4]; [6],405 (±56) mm^3
same,Tumor growth inhibition (%),[4]; [6],41%
